From article PMC10349806 (Nature Communications, 2023)
Where “and” joins values, the source holds several entries; their conditions need not be identical. Equal values may be shown once.

Biological target: PfCRT^Dd2 (Plasmodium falciparum, UniProt Q9N623, A220S/I356T/K76T/M74I/N326S/N75E/Q271E/R371I)
Experiment: Drug uptake assay, X. laevis oocytes expressing PfCRT^Dd2
Type: cell-based
Settings: for Kd: KS^CQ; for Vmax: CQ vs protons
Protocol: Oocytes were obtained as described previously. Briefly, adult (>2 years old) female X. laevis frogs (NASCO) were anesthetized in a cooled solution of ethyl 3-amino benzoate methanesulfonate (0.1%, w/v), followed by a surgical removal of parts of the ovary. The ovary lobes were carefully dissected and small pieces of oocytes were incubated in Ca^2+-free ND96 buffer (96 mM NaCl, 2 mM KCl, 1 mM MgCl2 buffered with 5 mM HEPES/NaOH, pH 7.5) supplemented with collagenase D (0.1%, w/v; Roche), BSA (0.5%, w/v), and 9 mm Na2HPO4 at 18 °C for 14-16 h while gentle shaking. After incubation, the oocytes were carefully washed several times with ND96 buffer (96 mM NaCl, 2 mM KCl, 1.8 mM CaCl2, 1 mM MgCl2 buffered with 5 mM HEPES/NaOH, pH 7.5) supplemented with 100 mg l^−1 gentamycin). Defolliculated and healthy-looking stage V-VI oocytes were manually selected for RNA microinjection. The RNA was generated as following: The codon-optimized sequences of PfCRT variants were cloned into the pSP64T expression vector. After vector linearization using the restriction endonucleases BamHI or SalI (New England Biolabs), transcription was performed using the in vitro SP6 mMessage mMachine Kit (Ambion)[34]. The obtained RNA was kept at −80 °C and diluted with nuclease-free water to a concentration of 0.6 μg μl^−1. Precision-bore glass capillary tubes (3.5-inch glass capillaries; Drummond Scientific Co.) were pulled on a vertical puller (P-87 Flaming/Brown micropipette puller, Sutter Instrument Co.), graduated, and placed on a microinjector (Nanoject II Auto-Nanoliter Injector, Drummond Scientific Co.). 50 nl of nuclease-free water alone (control oocytes) or 50 nl of 0.6 μg μl^−1 RNA were injected under stereomicroscopic control. Injected oocytes were incubated for 46–72 h at 18 °C with twice-daily buffer changes before usage in experiments.
Drug uptake assays were performed as described previously[21],[22],[24],[34]. […] The direction of radio-labeled drug transport is here from the mostly acidic extracellular solution (pH 4.5 or 6.0, as indicated) into the oocyte cytosol (pH ∼ 7.2), which corresponds to the efflux of drug from the acidic digestive vacuole (pH 5.2) into the parasite cytoplasm (pH 7.2). The topology of PfCRT in the oolemma is such that both the N- and C-terminus face the extracellular milieu[3],[22]. In the parasite, the N- and C-terminus face the lumen of the digestive vacuole. […] For determination of the amount of drug uptake for each oocyte, the reaction medium was removed and the oocytes were washed three times with 2 ml of ice-cold ND96 buffer. Each oocyte was individually transferred to a scintillation vial containing 5% sodium dodecyl sulfate (200 μl) for lysis. […] Oocytes that were injected with water instead of RNA were analyzed in parallel, representing the uptake of a drug by diffusion and/or endogenous permeation pathways. The resulting value represents the “background“ level of drug accumulation in oocytes (in-depth discussion in[22]). The specific PfCRT-mediated uptake was determined by subtracting the corresponding background value measured in water-injected oocytes from that of PfCRT-expressing oocytes. In all cases, at least three separate experiments were performed on oocytes from different frogs (biological replicate), and for each condition in an experiment, measurements were made from 10 oocytes per treatment. For pH 5.5, 6.0, and 6.5, ND96 was buffered with 5 mM MES/Tris base. For pH 4.5, 5 mM Homo-Pipes was used as a buffer and 5 mM HEPES for uptake at pH 7.0.

[1] = mixed (partial) model, mean ± SEM
[2] = PfCRTDd2, 50 µM CQ, 1 h, mean ± SEM

Chain of PfCRT^Dd2 (Q9N623 whole entry A220S/I356T/K76T/M74I/N326S/N75E/Q271E/R371I): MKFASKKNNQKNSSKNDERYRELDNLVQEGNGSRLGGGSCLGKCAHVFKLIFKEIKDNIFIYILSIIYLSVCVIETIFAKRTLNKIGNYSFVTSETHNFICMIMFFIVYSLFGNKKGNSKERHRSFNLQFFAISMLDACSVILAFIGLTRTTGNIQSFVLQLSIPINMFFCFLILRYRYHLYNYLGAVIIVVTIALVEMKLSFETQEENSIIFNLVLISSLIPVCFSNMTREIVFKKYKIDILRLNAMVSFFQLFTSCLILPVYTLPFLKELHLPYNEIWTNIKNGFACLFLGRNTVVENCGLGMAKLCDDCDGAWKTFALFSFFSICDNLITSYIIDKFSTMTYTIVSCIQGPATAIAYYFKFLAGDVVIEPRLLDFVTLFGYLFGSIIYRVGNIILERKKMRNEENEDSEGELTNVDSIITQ

Q: How did the “v-1 pH 6.0” value (500 µM CQ, Lineweaver-Burk) turn out when `CCN(CC)CCCC(C)Nc1ccnc2cc(Cl)ccc12` (centres unmarked) [CQ, chloroquine] was run?
A: Its value is 0.05 (pmol oocyte-1 h-1)-1.

Q: And the “inflection point in the weakly acidic pH range” value (CQ transport vs pH)?
A: The value was ~ 5.2 pH.

Q: What about the “PfCRTDd2 transport activity pH 4.5” value (CQ uptake, X. laevis oocytes expressing PfCRTDd2, pH 4.5, individual replicates (Fig 6b)) of the same molecule?
A: The value was 0.81 pmol oocyte-1 h-1 and 1.13 pmol oocyte-1 h-1 and 0.91 pmol oocyte-1 h-1 and 1.51 pmol oocyte-1 h-1 and 1.64 pmol oocyte-1 h-1 and 1.57 pmol oocyte-1 h-1.

Q: And the “PfCRTDd2 transport activity pH 4.5” value (CQ uptake, X. laevis oocytes expressing PfCRTDd2, pH 4.5, individual replicates (source data Fig 1d left))?
A: Its value is 0.89 pmol oocyte-1 h-1 and 0.81 pmol oocyte-1 h-1 and 1.13 pmol oocyte-1 h-1 and 0.91 pmol oocyte-1 h-1 and 1.51 pmol oocyte-1 h-1 and 1.64 pmol oocyte-1 h-1.

Q: And the “PfCRTDd2 transport activity pH 6.0” value (CQ uptake, X. laevis oocytes expressing PfCRTDd2, pH 6.0, individual replicates (Fig 6b))?
A: Its value is 3.69 pmol oocyte-1 h-1 and 3.79 pmol oocyte-1 h-1 and 3.00 pmol oocyte-1 h-1 and 3.40 pmol oocyte-1 h-1 and 3.90 pmol oocyte-1 h-1 and 6.11 pmol oocyte-1 h-1 and 4.28 pmol oocyte-1 h-1 and 5.58 pmol oocyte-1 h-1 and 6.47 pmol oocyte-1 h-1 and 3.37 pmol oocyte-1 h-1 and 3.28 pmol oocyte-1 h-1 and 4.53 pmol oocyte-1 h-1 and 3.68 pmol oocyte-1 h-1 and 5.95 pmol oocyte-1 h-1 and 11.50 pmol oocyte-1 h-1 and 6.00 pmol oocyte-1 h-1 and 4.23 pmol oocyte-1 h-1 and 6.19 pmol oocyte-1 h-1 and 4.62 pmol oocyte-1 h-1 and 6.53 pmol oocyte-1 h-1.

Q: What about the “PfCRTDd2 transport activity pH 6.0” value (CQ uptake, X. laevis oocytes expressing PfCRTDd2, pH 6.0, individual replicates (source data Fig 1d left)) of the same molecule?
A: The value was 5.87 pmol oocyte-1 h-1 and 4.37 pmol oocyte-1 h-1 and 4.87 pmol oocyte-1 h-1 and 4.94 pmol oocyte-1 h-1 and 5.55 pmol oocyte-1 h-1 and 3.80 pmol oocyte-1 h-1 and 3.69 pmol oocyte-1 h-1 and 3.79 pmol oocyte-1 h-1 and 3.00 pmol oocyte-1 h-1 and 3.40 pmol oocyte-1 h-1 and 3.90 pmol oocyte-1 h-1 and 6.11 pmol oocyte-1 h-1 and 4.28 pmol oocyte-1 h-1 and 5.58 pmol oocyte-1 h-1 and 6.47 pmol oocyte-1 h-1 and 3.37 pmol oocyte-1 h-1 and 3.28 pmol oocyte-1 h-1 and 4.53 pmol oocyte-1 h-1 and 3.68 pmol oocyte-1 h-1 and 5.95 pmol oocyte-1 h-1.

Q: And the “PfCRTDd2 transport activity pH 4.5 with preincubation 1 h at pH 4.5” value (CQ uptake, independent samples)?
A: The value was 5.80 pmol oocyte-1 h-1 and 5.85 pmol oocyte-1 h-1 and 2.93 pmol oocyte-1 h-1.

Q: What about the “PfCRTDd2 transport activity pH 4.5 without preincubation” value (CQ uptake, independent samples) of the same molecule?
A: Its value is 5.79 pmol oocyte-1 h-1 and 5.26 pmol oocyte-1 h-1 and 2.99 pmol oocyte-1 h-1.

Q: And the Kd [1]?
A: Its Kd is 320 ± 100 µM.

Q: And the Kd (noncompetitive (partial) model, called KM, mean ± SEM)?
A: The Kd was 220 ± 25 µM.

Q: What about the “Activity at pH 4.5” value [2] of the same molecule?
A: Its value is 1.20 ± 0.10 pmol h-1 oocyte-1.

Q: What about the “Activity at pH 6.0” value [2] of the same molecule?
A: Its value is 5.05 ± 0.23 pmol h-1 oocyte-1.

Q: What about the R-value (PfCRTDd2, CQ transport at pH 4.5 / pH 6.0) of the same molecule?
A: Its R-value is ~ 0.2 and 0.24 ± 0.01.

Q: And the “Vmax ± SEM” value (PfCRT^Dd2, pH 4.5)?
A: The value was 14 ± 2 pmol h^−1 oocyte ^−1.

Q: And the “Vmax ± SEM” value (PfCRT^Dd2, pH 6.0)?
A: Its value is 32 ± 2 pmol h^−1 oocyte ^−1.

Q: And the “PfCRTDd2 R-value” (R-value from transport activity at pH 4.5 and pH 6.0, individual replicates (source data Fig 1d left))?
A: The value was 0.23 and 0.27 and 0.25.

Q: What about the “PfCRTDd2 R-value” (R-value from transport activity at pH 4.5 and pH 6.0, oocytes expressing PfCRTDd2, source data Fig 1d left) of the same molecule?
A: Its value is 0.25.

Q: What about the “pH of maximal CQ transport activity” value (bell-shaped curve, pH 4.5 to 7.0, 50 µM CQ) of the same molecule?
A: Its value is 6.2 ± 0.3 pH.

Q: And the “CQ transport activity, oocytes pre-treated 1 h at pH 4.5 vs untreated” value (in words)?
A: Its value is “no significant differences”.

Q: What about the Vmax [1] of the same molecule?
A: Its Vmax is 45 ± 9 pmol h^−1 oocyte^−1.

Q: What about the α (mixed (partial) model, factor by which KS values change when other substrate is bound) of the same molecule?
A: Its α is 0.53 ± 0.26.

Q: What about the β (mixed (partial) model, factor by which Vmax is affected by the inhibitor) of the same molecule?
A: The β was 0.27 ± 0.06.

Q: And the Vmax (noncompetitive (partial) model, mean ± SEM)?
A: The Vmax was 40 ± 4 pmol h^−1 oocyte^−1.

Q: What about the β (noncompetitive (partial) model, factor by which Vmax is affected by bound proton) of the same molecule?
A: Its β is 0.36 ± 0.02.

Q: And the “PfCRTDd2 transport activity pH 4.5” value (pH 4.5, individual replicates (Fig 6a))?
A: Its value is 0.82 pmol oocyte-1 h-1 and 2.03 pmol oocyte-1 h-1 and 1.25 pmol oocyte-1 h-1 and 0.75 pmol oocyte-1 h-1 and 1.02 pmol oocyte-1 h-1 and 0.89 pmol oocyte-1 h-1 and 0.81 pmol oocyte-1 h-1 and 1.13 pmol oocyte-1 h-1 and 0.91 pmol oocyte-1 h-1 and 1.51 pmol oocyte-1 h-1 and 1.64 pmol oocyte-1 h-1 and 1.57 pmol oocyte-1 h-1 and 1.05 pmol oocyte-1 h-1 and 1.43 pmol oocyte-1 h-1.

Q: And the “PfCRTDd2 transport activity pH 4.5” value (pH 4.5, individual replicates, Fig 6b)?
A: The value was 0.82 pmol oocyte-1 h-1 and 2.03 pmol oocyte-1 h-1 and 1.25 pmol oocyte-1 h-1 and 0.75 pmol oocyte-1 h-1 and 1.02 pmol oocyte-1 h-1 and 0.89 pmol oocyte-1 h-1 and 1.05 pmol oocyte-1 h-1 and 1.43 pmol oocyte-1 h-1.

Q: And the “PfCRTDd2 transport activity pH 4.5” value (pH 4.5, oocytes expressing PfCRTDd2, individual replicate values, source data Fig 1d left)?
A: Its value is 1.57 pmol oocyte-1 h-1.

Q: And the “PfCRTDd2 transport activity pH 4.5” value (pH 4.5, single replicates, Fig 1d left)?
A: Its value is 2.03 pmol oocyte-1 h-1 and 1.25 pmol oocyte-1 h-1 and 0.75 pmol oocyte-1 h-1 and 1.02 pmol oocyte-1 h-1 and 1.05 pmol oocyte-1 h-1 and 1.43 pmol oocyte-1 h-1 and 0.82 pmol oocyte-1 h-1.

Q: And the “PfCRTDd2 R-value” (pH 4.5 vs pH 6.0, Fig 1d left)?
A: The value was 0.27 and 0.30 and 0.19 and 0.23 and 0.17 and 0.15.

Q: And the “PfCRTDd2 transport activity pH 6.0” value (pH 6.0, individual replicates, Fig 6b)?
A: Its value is 5.64 pmol oocyte-1 h-1 and 4.84 pmol oocyte-1 h-1 and 7.93 pmol oocyte-1 h-1 and 4.17 pmol oocyte-1 h-1 and 7.55 pmol oocyte-1 h-1 and 4.19 pmol oocyte-1 h-1 and 4.00 pmol oocyte-1 h-1 and 4.20 pmol oocyte-1 h-1 and 4.01 pmol oocyte-1 h-1 and 4.51 pmol oocyte-1 h-1 and 5.87 pmol oocyte-1 h-1 and 4.37 pmol oocyte-1 h-1 and 4.87 pmol oocyte-1 h-1 and 4.94 pmol oocyte-1 h-1 and 5.55 pmol oocyte-1 h-1 and 3.80 pmol oocyte-1 h-1 and 4.33 pmol oocyte-1 h-1 and 4.86 pmol oocyte-1 h-1 and 6.59 pmol oocyte-1 h-1 and 6.15 pmol oocyte-1 h-1 and 4.02 pmol oocyte-1 h-1 and 5.29 pmol oocyte-1 h-1 and 5.21 pmol oocyte-1 h-1.

Q: And the “PfCRTDd2 transport activity pH 6.0” value (pH 6.0, oocytes expressing PfCRTDd2, individual replicate values, source data Fig 1d left)?
A: Its value is 11.50 pmol oocyte-1 h-1 and 6.00 pmol oocyte-1 h-1 and 4.23 pmol oocyte-1 h-1 and 6.19 pmol oocyte-1 h-1 and 4.62 pmol oocyte-1 h-1 and 6.53 pmol oocyte-1 h-1.

Q: And the “PfCRTDd2 transport activity pH 6.0” value (pH 6.0, single replicates, Fig 1d left)?
A: The value was 5.64 pmol oocyte-1 h-1 and 4.84 pmol oocyte-1 h-1 and 7.93 pmol oocyte-1 h-1 and 4.17 pmol oocyte-1 h-1 and 7.55 pmol oocyte-1 h-1 and 4.19 pmol oocyte-1 h-1 and 4.00 pmol oocyte-1 h-1 and 4.20 pmol oocyte-1 h-1 and 4.01 pmol oocyte-1 h-1 and 4.51 pmol oocyte-1 h-1 and 4.33 pmol oocyte-1 h-1 and 4.86 pmol oocyte-1 h-1 and 6.59 pmol oocyte-1 h-1 and 6.15 pmol oocyte-1 h-1 and 4.02 pmol oocyte-1 h-1 and 5.29 pmol oocyte-1 h-1 and 5.21 pmol oocyte-1 h-1.

Q: What about the “PfCRTDd2 R-value” (ratio of activity pH 4.5 / pH 6.0) of the same molecule?
A: The value was 0.15 and 0.27 and 0.30 and 0.19 and 0.23 and 0.17.

Q: What about the “PfCRTDd2 R-value” (ratio of transport activity pH 4.5 to pH 6.0, individual replicates (Fig 6b)) of the same molecule?
A: The value was 0.27 and 0.25.

Q: What about the “PfCRTDd2 R-value” (transport activity pH 4.5 relative to pH 6.0 (Fig 6a)) of the same molecule?
A: The value was 0.15 and 0.27 and 0.30 and 0.19 and 0.23 and 0.25 and 0.17.
